# Reference: article PMC5471452, “Optical control of a receptor-linked guanylyl cyclase using a photoswitchable peptidic hormone” (Chemical Science, 2017)
# What was measured:
# [1] = test system: pancreatic beta cells in islets of Langerhans; experiment: Calcium imaging of beta cells in intact islets of Langerhans; format: cell-based, CD1 mice; settings: for effect on amplitude of intracellular Ca2+ fluxes in beta cells, in words: intact islets, 8 mM glucose, ANP 0.1–100 nM, TOP271 isomers 1–100 nM, n = 4–6 islets for each concentration
# Protocol: Reversibility could be achieved by applying cis-TOP271 and then illuminating with blue light (λ = 458–482 nm) to induce trans-isomerisation (Fig. 4i and j). Restoration of beta cell function was only partial (Fig. 4j), however, possibly due to cGMP-mediated sequestration of Ca^2+ into internal stores such as the endoplasmic reticulum.[61] […]
# CD1 mice were maintained in a specific pathogen-free facility under a 12 h light–dark cycle with ad libitum access to water and food. Animals were euthanized by cervical dislocation and islets isolated using collagenase digestion. Islets were cultured overnight in Roswell Park Memorial Institute (RPMI) medium supplemented with 10% foetal calf serum and 100 U/mL penicillin and 100 µg/mL streptomycin. No randomization was used for animal experimentation, since mice were only used as tissue donors.
# Experimental protocols were approved by the University of Birmingham's Animal Welfare and Ethical Review Body (AWERB) and carried out in accordance with the Animals (Scientific Procedures) Act 1986 of the United Kingdom.
# Islets were loaded for 40 min with Fluo8 (AAT Bioquest, Sunnyvale, CA, USA), before imaging using a Crest X-Light spinning disk head coupled to a Nikon Ti-E automated base and 10 x/0.4 NA objective. Pulsed excitation was delivered at λ = 458–482 nm (400 ms exposure; 0.33 Hz) via a Lumencor Spectra X Light Engine, and emitted signals detected at λ = 500–550 nm using a Photometrics Evolve Delta 512 EMCCD.
# Illumination to induce photoswitching was performed using either continuous exposure to λ = 458–482 nm or λ = 382–407 nm. In all cases, HEPES-bicarbonate buffer was used, containing in mM: 120 NaCl, 4.8 KCl, 24 NaHCO3, 0.5 Na2HPO4, 5 HEPES, 2.5 CaCl2, 1.2 MgCl2, 8 D-glucose. Ca2+ traces were normalized as F/Fmin (F = fluorescence at any given timepoint; Fmin = minimum fluorescence) and relative change in this value over time denoted by a scale bar.
# Non-multifactorial comparisons were made using Student’s t-test. Multifactorial comparisons were prepared using one-way ANOVA. Log-transformed concentration-response curves were fitted using non-linear regression and the Hill equation. All analyses were conducted using Graphpad Prism (Graphpad software) and IgorPro (WaveMetrics software), and results deemed significant * at P<0.05 or ** at P<0.01.
# [2] = ex vivo or in vivo, depending on cell environment or azoreductase expression; cited from earlier work
# Description: Acting via the NPR-A receptor to generate cGMP, TOP271 allows the reversible photocontrol of contraction/dilation in aortic tissue, as well as Ca^2+ oscillations in rodent islets of Langerhans. Although photodependent cGMP synthesis was described earlier, these approaches rely on the genetically-encoded photosensitive proteins EROS[64],[65] or BeCyclOps,[66],[67] whereas TOP271 allows unprecedented photocontrolled cGMP synthesis in nativ ...
# [3] = test system: murine thoracic aortic rings; experiment: Aortic tensometry, pre-constricted aortic rings; design: species or system C57BL/6 mice; settings: for vasodilation of pre-constricted aortic rings, in words: rings pre-contracted with 1 µM phenylephrine, 200 μM L-NAME and 3 μM diclofenac present, n = 6 aortic rings from 4 animals
# Protocol: We next sought to address whether TOP271 would allow the optical control of cGMP-dependent processes in a physiologically relevant system, i.e. the aortic ring preparation. […] Accordingly, we predicted that TOP271 would allow reversible, light-controlled vasoactive responses, with cis-TOP271 being the stronger effector at specific concentrations. […] Although this concentration–response indicated a significant difference in receptor activation for 100 nM TOP271, we decided to use 400 nM TOP271 to trigger a stronger isomer-dependent vasodilation.
# Fig. 3 TOP271 allows photocontrol of aortic tissue. (a) Concentration-response curves for trans- and cis-TOP271. (b) Aortic relaxation for cycles in (d) and (e). […] (d, e) Reversible photocontrol over aortic tension by application of trans-TOP271 (d) and cis-TOP271 (e) with UV-/blue and blue/UV-light (365 and 460 nm) cycles, respectively. All experiments were conducted in the presence of 200 μM N-ω-nitro-L-arginine methyl ester (L-NAME) and 3 μM diclofenac, which were used to block the vascular relaxants nitric oxide and prostacyclin, respectively. PE = phenylephrine was used for initial vasoconstriction, IBMX = 3-iso-butyl-1-methylxanthine was used to induce complete muscular relaxation as an end point control. (n = 6 aortic rings from 4 animals) (*P < 0.05, **P < 0.01, repeated measures Student's t-test). Values represent the mean ± SEM. […]
# Murine thoracic aortic rings were mounted in a myograph as described recently16. In detail, thoracic aortas from C57BL/6 mice were explanted and cut into rings and mounted on fixed segment support pins in two four-chamber Myograph 610 (Danish Myo Technology, Aarhus, Denmark) containing 5 ml of Krebs–Henseleit solution (containing […]
# glucose, pH 7.4), bubbled with 95% O2 and 5% CO2. Resting tension was set to 5 mN in the presence of Diclofenac (3 µM) and N-nitro-L-arginine methyl ester (L-NAME) (200 µM). After equilibration (45 minutes at 37 °C), rings were pre-contracted with 1 µM phenylephrine (PE). Since aortic ring myography is sensitive to temperature fluctuations, effects of direct and indirect illumination on vasoactivity were determined. […] The vasorelaxing effects of pre-illuminated cis- and dark trans-TOP271 were assessed once a steady plateau was reached. […]
# were prepared (10 mM in water), of which an aliquot of TOP271 was either pre-illuminated at λ = 365 nm using a UVP 3UV benchtop UV lamp to obtain the cis-isomer, or kept in the dark to maintain the trans-isomer. […] Read-out was conducted in between illumination cycles as soon as a steady plateau was reached to exclude any light dilational effects. […]
# NPR-A = biological target: T1, NPR-A (Homo sapiens, UniProt P16066); experiment: cGMP assay (HTRF) in HEK293T cells transiently transfected with NPR-A; format: cell-based; settings: in vitro
# T1 construct: expressed in transfected cells; host or cells: HEK293t cells (DSMZ #305), transiently co-transfected with pCMV5_GC-A and YFP
# T1 sequence (P16066 33-1061): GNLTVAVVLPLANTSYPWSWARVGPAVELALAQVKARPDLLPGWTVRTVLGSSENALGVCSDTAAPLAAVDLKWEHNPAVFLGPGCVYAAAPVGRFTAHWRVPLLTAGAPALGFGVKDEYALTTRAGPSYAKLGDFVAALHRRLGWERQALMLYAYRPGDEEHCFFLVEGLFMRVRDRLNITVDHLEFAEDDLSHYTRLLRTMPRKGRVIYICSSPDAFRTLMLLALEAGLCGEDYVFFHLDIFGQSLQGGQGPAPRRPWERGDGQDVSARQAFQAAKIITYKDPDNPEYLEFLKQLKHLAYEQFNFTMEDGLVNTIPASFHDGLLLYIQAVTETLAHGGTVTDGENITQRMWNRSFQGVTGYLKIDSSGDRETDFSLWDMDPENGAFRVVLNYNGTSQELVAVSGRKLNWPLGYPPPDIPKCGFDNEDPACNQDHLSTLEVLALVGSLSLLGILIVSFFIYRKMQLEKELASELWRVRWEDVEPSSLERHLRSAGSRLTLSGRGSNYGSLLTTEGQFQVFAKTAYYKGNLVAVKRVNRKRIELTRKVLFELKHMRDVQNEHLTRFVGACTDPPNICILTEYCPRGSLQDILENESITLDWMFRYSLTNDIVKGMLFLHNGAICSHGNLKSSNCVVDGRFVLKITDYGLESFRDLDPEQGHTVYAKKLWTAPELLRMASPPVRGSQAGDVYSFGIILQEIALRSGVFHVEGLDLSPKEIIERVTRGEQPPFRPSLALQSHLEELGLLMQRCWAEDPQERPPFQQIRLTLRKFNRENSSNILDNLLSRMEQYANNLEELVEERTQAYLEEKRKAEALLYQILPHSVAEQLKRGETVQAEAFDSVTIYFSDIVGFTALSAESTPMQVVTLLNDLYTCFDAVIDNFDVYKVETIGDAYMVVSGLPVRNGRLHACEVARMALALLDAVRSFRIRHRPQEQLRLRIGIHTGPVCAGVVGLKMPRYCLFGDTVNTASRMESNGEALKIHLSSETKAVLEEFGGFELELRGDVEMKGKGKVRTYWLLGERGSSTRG
# Protocol: To test cGMP synthesis, each peptide was applied as the trans- or cis-isomer by keeping them either in the dark or pre-illuminating with UV light (λ = 365 nm) for 15 minutes, respectively.
# cGMP assay in transiently transfected HEK293t cells
# HEK293t cells (obtained from the Leibniz-Institute DSMZ, Braunschweig, Germany, #305, regularly mycoplasma tested) were transfected with pCMV5_GC-A 4 and YFP using Lipofectamine 2000® (Life Science, Indianapolis, IN, USA) at >80% confluency in a T25 flask according to the manufacturer’s instructions. After 24 h, cells were checked by means of YFP fluorescence for successful transfection (>70% efficiency), washed once and harvested with 1 mL Hepes-Krebs-Ringer (HKR) buffer (containing in mM: 135 NaCl, 5 KCl, 1 MgSO4, 0.4 K2HPO4, 5.5 D-glucose, 20 HEPES, 1 CaCl2, pH = 7.4) supplemented with PDE inhibitors IBMX (500 µM, Tocris, Bristol, UK, #2840) and Ro
# µL of cell solution was pipetted into each well of a 384-well plate (white, flat bottom, Greiner, Frickenhausen, Germany). […] The resulting assays were incubated for 30 min before they were lysed and treated with a cGMP HTRF kit (Cisbio, Codolet, France) according to the manufacturer’s instructions. cGMP levels were read with a Omega platereader (BMG Labtech, Offenburg, Germany) after 1 h of incubation time and normalized according to the cGMP standards. […]
# [4] = in benzene at 0 °C; cited from earlier work
# Protocol: As expected for an electron-poor azobenzene, all peptides were bistable (TOP271 Fig. 2c, TOP263-270 ESI Fig. 3 ^†). ^¶ ¶All peptides are available for academic use from the Hoffmann-Röder lab upon request. This advantageous trait allows samples to be pre-illuminated prior to application rather than needing constant illumination. […], and because the compounds were bistable, the initial back-relaxation was obtained as a linear function from the first 30 min after ceasing illumination. P ...
compound,measurement,setting,value
"CC[C@H](C)[C@@H]1NC(=O)[C@H](CCCNC(=N)N)NC(=O)[C@H](CC(=O)O)NC(=O)[C@H](CCSC)NC(=O)[C@H](CCCNC(=N)N)NC(=O)CNC(=O)CNC(=O)[C@H](Cc2ccccc2)NC(=O)[C@@H](NC(=O)[C@H](CO)NC(=O)[C@H](CO)NC(=O)[C@H](CCCNC(=N)N)NC(=O)[C@H](CCCNC(=N)N)NC(=O)[C@H](CC(C)C)NC(=O)[C@@H](N)CO)CSSC[C@@H](C(=O)N[C@@H](CC(N)=O)C(=O)N[C@@H](CO)C(=O)N[C@@H](Cc2ccccc2)C(=O)N[C@@H](CCCNC(=N)N)C(=O)N[C@@H](Cc2ccc(O)cc2)C(=O)O)NC(=O)CNC(=O)[C@H](CC(C)C)NC(=O)CNC(=O)[C@H](CO)NC(=O)[C@H](CCC(N)=O)NC(=O)[C@H](C)NC(=O)CNC1=O [ANP, human atrial natriuretic peptide, reference compound]","effect on amplitude of intracellular Ca2+ fluxes in beta cells, in words",[1],suppressed beta cell function
same,pancreatic beta cell Ca2+ spiking frequency,"[1]; low (0.1 nm) but not high (10 nm) concentration, n = 5-7 islets for each concentration",stimulate increases
CCN(CC)c1ccc(/N=N/c2ccc(S(=O)(=O)NC(=O)NC3CCCCC3)cc2)cc1 [JB253],degradation of the diazene unit,[2],not the case
CC[C@H](C)[C@@H]1NC(=O)[C@H](CCCNC(=N)N)NC(=O)[C@H](CC(=O)O)NC(=O)[C@H](CCSC)NC(=O)[C@H](CCCNC(=N)N)NC(=O)CNC(=O)CNC(=O)[C@H](Cc2ccccc2)NC(=O)[C@@H](NC(=O)[C@H](CO)NC(=O)[C@H](CO)NC(=O)[C@H](CCCNC(=N)N)NC(=O)[C@H](CCCNC(=N)N)NC(=O)[C@H](CC(C)C)NC(=O)[C@@H](N)CO)CSSC[C@@H](C(=O)N[C@@H](CC(N)=O)C(=O)N[C@@H](CO)C(=O)N[C@@H](Cc2ccccc2)C(=O)N[C@@H](CCCNC(=N)N)C(=O)N[C@@H](Cc2ccc(O)cc2)C(=O)O)NC(=O)Cc2cccc(c2)/N=N\c2cccc(c2)CNC(=O)[C@H](CCC(N)=O)NC(=O)[C@H](C)NC(=O)CNC1=O [cis-TOP271],"speed of the initial vasodilation, cis- compared to trans-TOP271","[3]; 400 nM, aortic rings",1.5 ×
same,"vasodilation of pre-constricted aortic rings, in words",[3]; 400 nM,potent vasodilation
same,"vasodilation concentration-response, cis- versus trans-isomer","[3]; pre-illuminated isomers, 100 nM to 1 μM range, pre-constricted aortic rings",increased potency
same,restoration of beta cell function after blue light (458–482 nm) trans-isomerisation,"[1]; cis-TOP271 applied, then blue light, n = 5 islets",only partial
same,"effect on amplitude of intracellular Ca2+ fluxes in beta cells, in words",[1],robustly suppressed Ca^2+ rises
same,fold higher potency of cis- over trans-isomer for cGMP generation,NPR-A,4 fold
CC[C@H](C)[C@@H]1NC(=O)[C@H](CCCNC(=N)N)NC(=O)[C@H](CC(=O)O)NC(=O)[C@H](CCSC)NC(=O)[C@H](CCCNC(=N)N)NC(=O)CNC(=O)CNC(=O)[C@H](Cc2ccccc2)NC(=O)[C@@H](NC(=O)[C@H](CO)NC(=O)[C@H](CO)NC(=O)[C@H](CCCNC(=N)N)NC(=O)[C@H](CCCNC(=N)N)NC(=O)[C@H](CC(C)C)NC(=O)[C@@H](N)CO)CSSC[C@@H](C(=O)N[C@@H](CC(N)=O)C(=O)N[C@@H](CO)C(=O)N[C@@H](Cc2ccccc2)C(=O)N[C@@H](CCCNC(=N)N)C(=O)N[C@@H](Cc2ccc(O)cc2)C(=O)O)NC(=O)Cc2cccc(c2)/N=N/c2cccc(c2)CNC(=O)[C@H](CCC(N)=O)NC(=O)[C@H](C)NC(=O)CNC1=O [trans-TOP271],"vasodilation of pre-constricted aortic rings, in words",[3]; 400 nM,strong vasodilation
same,"effect on amplitude of intracellular Ca2+ fluxes in beta cells, in words",[1],only a small decrease
"c1ccc(/N=N/c2ccccc2)cc1 [unsubstituted azobenzene, azobenzene]",k obs thermal relaxation,[4],3.58 × 10^–4 a.u. min^–1
